Data taken from patent publication EP0808833B1, “Vitamin D3 analogs” (F. HOFFMANN-LA ROCHE AG, priority 1996, dated 1997).
Where two headings read alike, the source gives them in different places. Marks after values point to notes of the source that are not given here.

Key:
[1] = Calcium tolerance test in mice; type: in vivo; conditions: highest tolerated dose = dose resulting in zero weight gain, daily subcutaneous administration for 4 consecutive days; for MTD: mouse, in vivo, sc, read-out: HTD
Description: Calcium tolerance test in mice
Profound changes in calcium homeostasis strongly affect the weight development of mice. Mice (25-30 g body weight) received daily subcutaneous administrations of the compound for 4 consecutive days. Body weight was registered just before and at the end of a […] treatment period. The "highest tolerated dose" (HTD) is the dose which results in zero weight gain during this treatment period.

HaCaT cells = assay: Inhibition of keratinocyte proliferation (3H-thymidine uptake, HaCaT); type: cell-based; conditions: Homo sapiens, 3H-thymidine incorporation after 6 days of culture in presence of the test compound
[2] = system: UVB-Induced Dermal Damage; assay: Repair of UVB-induced dermal damage in the hairless mouse; type: in vivo, Hairless mice; conditions: treated three times per week after UVB irradiation
Description: Repair of UVB-Induced Dermal Damage in the Hairless Mouse by Compounds of Formula I Hairless mice (female, HRS/J strain, Jackson Labs, 5-7 weeks old at the start of the experiments) were housed in yellow light and irradiated three times per week with a bank of 8 Westinghouse Sunlamps (FS72T12 HO, peak irradiance at 313 nm) placed about 20 cm above the animals. UVB output was measured on an International Light Research Radiometer, model IL 1700, using a SEE240 detector. With this setup, the lamp output was approximately 3.5 mW/cm^2 and the time of exposure for 0.06 J/cm^2 was about 17 seconds; 1 MED is approximately 0.03 J/cm^2. The precise dose was delivered by a IL […] Phototherapy Exposure Control. Daily doses were 0.03 J/cm^2 for two weeks, 0.06 J/cm^2 for two weeks and 0.08 J/cm^2 thereafter, until a total dose of approximately 4 J/cm^2 was accumulated. To effect repair of the dermal damage, the UVB irradiation was discontinued and the animals were divided into groups of approximately eight and treated three times per week with various concentrations of the vitamin D analogs dissolved in ethanol. All dosing was done under yellow light. […] In these studies, since the width of the zone varies considerably, the area of the zone on a standard length of histological section is measured by image analysis. Compounds are tested at three doses and an approximate ED50 calculated.

HL-60 cells = assay: HL-60 cell differentiation (NBT reduction); type: cell-based; conditions: Homo sapiens, HL-60, 72 h, concentration leading to 50% of maximal differentiation achieved with 100-1000 nM calcitriol, 3 days, read-out: ED50 (the source's name)
[3] = system: T47-D breast carcinoma cells; assay: Antiproliferative activity in T47-D breast carcinoma cells (MTT); type: cell-based; conditions: Homo sapiens, T47D, 72 h
sebaceous cells = assay: Inhibition of human sebocyte proliferation in vitro; type: cell-based; conditions: amount of compound necessary to inhibit proliferation of sebaceous cells by 50% as compared to a vehicle-treated culture, tested at 10^-6, 10^-7 and 10^-8 M, read-out: ED50 (the source's name)
Description: Inhibition of Human Sebocyte Proliferation In Vitro
The cells were cultured in Iscove's medium containing 10% fetal calf serum and 4 µg/ml dexamethasone on a layer of growth-arrested 3T3 mouse fibroblasts. Cells were plated in medium without the test compound and then given test compound in fresh medium 24-48 hours after the initial plating. The cultures were given fresh medium, containing the test compound, every 48 hours. On the day of harvesting, the cultures were rinsed with 0.03% EDTA (ethylenediamine tetroacetic acid) in PBS (phosphate-buffered saline), to remove only the 3T3 fibroblasts, followed by incubation in 0.05% trypsin/0.03% EDTA. The cells were suspended, mixed vigorously to prepare a single cell suspension and counted in a hemocytometer.
Stock solutions of compounds were made up as 10^-2 M solutions in degassed 100% ethanol and stored at -20°C in the dark. During experimental use, the solutions, which have been aliquoted, were brought to room temperature and used by diluting directly into complete medium to the appropriate concentration.

| Molecule | HTD [1] [µg/kg] | EC50 (sebaceous cells) [nM] | further results |
| --- | --- | --- | --- |
| 1,25-Dihydroxy-16,23Z-diene-26,27-hexafluoro-20-epi-19-norcholecalciferol | 3.0 |  |  |
| C=C1/C(=C\C=C2/CCC[C@]3(C)C([C@@H](C)C/C=C/C(O)(C(F)(F)F)C(F)(F)F)=CC[C@@H]23)C[C@@H](O)C[C@@H]1O [1,25-Dihydroxy-16,23E-diene-26,27-hexafluoro-20-epi-cholecalciferol] |  |  | MTD [1]: 2.5 µg/kg; IC50 (HaCaT cells): 0.7 nM; Repair Zone ([2]; Dose 0.1 µg, P < 0.001 vs vehicle control): 0.0282±0.0092*** mm^2; Repair Zone ([2]; Dose 0.5 µg, P < 0.05 vs vehicle control): 0.0102±0.0067* mm^2; EC50 (HL-60 cells): 0.37 nM; IC50 [3]: 10 nM; EC50 (sebaceous cells; Homo sapiens): < 10 nM |
| C=C1C(=CC=C2CCCC3(C)C(C(C)C/C=C\C(O)(C(F)(F)F)C(F)(F)F)=CCC23)CC(O)CC1O (stereo not drawn) [1,25-Dihydroxy-16,23Z-diene-26,27-hexafluoro-20-epi-cholecalciferol] | 2.5 |  |  |
| C=C1C(=CC=C2CCCC3(C)C(C(C)CCCC(C)(C)O)=CCC23)CC(O)CC1O (stereo not drawn) [1,25-Dihydroxy-16-ene-20-epi-cholecalciferol] | 30 | < 1 |  |
| C=C1C(=CC=C2CCCC3(C)C(C(C)CC#CC(C)(C)O)=CCC23)CC(O)CC1O (stereo not drawn) [1,25-Dihydroxy-16-ene-23-yne-20-epi-cholecalciferol] | 100 | 50 |  |
| C=C1/C(=C\C=C2/CCC[C@]3(C)C([C@@H](C)CC#CC(O)(C(F)(F)F)C(F)(F)F)=CC[C@@H]23)C[C@@H](O)C[C@@H]1O [1,25-Dihydroxy-16-ene-23-yne-26,27-hexafluoro-20-epi-cholecalciferol] | 6.0 | < 10 |  |
| C=C1/C(=C\C=C2/CCC[C@]3(C)[C@@H]([C@H](C)CCCC(C)(C)O)CC[C@@H]23)C[C@@H](O)C[C@@H]1O [1,25-Dihydroxy-cholecalciferol, reference compound] |  |  | MTD [1]: 0.5 µg/kg |
| C=C1C(=CC=C2CCCC3(C)C(C(C)C/C=C\C(O)(C(F)(F)F)C(F)(F)F)=CCC23)CC(O)CC1F (stereo not drawn) [1α-Fluoro-25-hydroxy-16,23Z-diene-26,27-hexafluoro-20-epi-cholecalciferol] | 8.0 |  |  |
